Results on two compounds are retold here after ChEMBL document CHEMBL1131296 (J Med Chem, 1998).

As usually defined, the Ki is the equilibrium dissociation constant of an inhibitor or competing ligand from its target. What is called pA2 is a measure of antagonist potency on a negative log scale.

Some results are limits rather than exact numbers.

Assay [1] addresses T1, Alpha-1B adrenergic receptor (Homo sapiens, UniProt P35368).
T1 sequence (P35368 whole entry): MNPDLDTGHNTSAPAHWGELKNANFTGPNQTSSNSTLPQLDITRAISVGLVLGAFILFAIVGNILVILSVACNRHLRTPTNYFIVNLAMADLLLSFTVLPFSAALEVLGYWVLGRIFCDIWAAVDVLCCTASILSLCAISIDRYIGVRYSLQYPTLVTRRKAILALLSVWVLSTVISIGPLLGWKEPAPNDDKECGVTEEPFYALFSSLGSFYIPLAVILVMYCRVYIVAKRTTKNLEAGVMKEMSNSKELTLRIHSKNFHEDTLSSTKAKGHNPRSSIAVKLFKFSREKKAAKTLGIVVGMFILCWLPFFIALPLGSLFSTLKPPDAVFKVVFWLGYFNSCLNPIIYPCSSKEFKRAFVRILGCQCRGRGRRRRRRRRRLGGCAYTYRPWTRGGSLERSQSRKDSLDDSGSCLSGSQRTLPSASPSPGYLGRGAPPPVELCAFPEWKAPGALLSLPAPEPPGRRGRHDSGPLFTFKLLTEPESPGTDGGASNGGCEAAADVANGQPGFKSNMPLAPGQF
As to the kind of experiment: Binding affinity at human cloned Alpha-1B adrenergic receptor in chinese hamster ovary cells by [3H]prazosin displacement. It counts as cell-based, CHO.

In a further assay the target is D(2) dopamine receptor (Rattus norvegicus, UniProt P61169). Briefly: Binding affinity at native Dopamine receptor D2 in rat striatum by [3H]spiperone displacement. It counts as tissue-based.
Assay [2] deals with T2, Alpha-1D adrenergic receptor (Homo sapiens, UniProt P25100).
T2 sequence (P25100 whole entry): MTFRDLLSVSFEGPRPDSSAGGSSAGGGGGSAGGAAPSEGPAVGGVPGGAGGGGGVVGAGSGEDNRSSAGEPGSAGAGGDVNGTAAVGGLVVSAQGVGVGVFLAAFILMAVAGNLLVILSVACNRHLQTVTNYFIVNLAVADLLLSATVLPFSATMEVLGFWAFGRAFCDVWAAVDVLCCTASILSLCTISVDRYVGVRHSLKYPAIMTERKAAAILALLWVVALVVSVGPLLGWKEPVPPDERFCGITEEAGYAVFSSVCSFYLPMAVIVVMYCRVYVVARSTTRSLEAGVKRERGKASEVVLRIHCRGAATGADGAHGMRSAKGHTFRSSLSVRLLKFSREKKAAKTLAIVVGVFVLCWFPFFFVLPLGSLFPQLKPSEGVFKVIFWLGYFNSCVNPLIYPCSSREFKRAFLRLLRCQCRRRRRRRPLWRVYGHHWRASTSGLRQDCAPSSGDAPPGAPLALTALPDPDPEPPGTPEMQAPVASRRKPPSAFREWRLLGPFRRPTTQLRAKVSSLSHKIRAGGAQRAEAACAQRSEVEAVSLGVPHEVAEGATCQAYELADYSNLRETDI
Briefly: Binding affinity at human cloned Alpha-1D adrenergic receptor in chinese hamster ovary cells by [3H]prazosin displacement. It counts as cell-based, CHO.

For assay [3], the target named is T3, Adrenergic receptor alpha-2 (Rattus norvegicus, UniProt P22086+P19328+P22909).
T3 sequence (P22086 whole entry): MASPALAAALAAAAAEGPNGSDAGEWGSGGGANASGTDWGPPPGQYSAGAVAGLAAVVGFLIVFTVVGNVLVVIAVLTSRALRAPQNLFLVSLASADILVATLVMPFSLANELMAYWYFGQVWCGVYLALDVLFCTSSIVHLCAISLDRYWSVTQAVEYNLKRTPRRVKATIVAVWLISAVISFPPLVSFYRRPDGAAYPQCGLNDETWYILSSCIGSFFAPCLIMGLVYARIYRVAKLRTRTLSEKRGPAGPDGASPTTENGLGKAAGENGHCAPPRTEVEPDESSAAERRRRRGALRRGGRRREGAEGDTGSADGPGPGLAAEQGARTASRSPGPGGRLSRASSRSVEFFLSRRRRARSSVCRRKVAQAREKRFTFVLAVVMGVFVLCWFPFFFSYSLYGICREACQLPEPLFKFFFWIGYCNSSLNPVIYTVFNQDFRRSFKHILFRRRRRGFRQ
T3 sequence (P19328 whole entry): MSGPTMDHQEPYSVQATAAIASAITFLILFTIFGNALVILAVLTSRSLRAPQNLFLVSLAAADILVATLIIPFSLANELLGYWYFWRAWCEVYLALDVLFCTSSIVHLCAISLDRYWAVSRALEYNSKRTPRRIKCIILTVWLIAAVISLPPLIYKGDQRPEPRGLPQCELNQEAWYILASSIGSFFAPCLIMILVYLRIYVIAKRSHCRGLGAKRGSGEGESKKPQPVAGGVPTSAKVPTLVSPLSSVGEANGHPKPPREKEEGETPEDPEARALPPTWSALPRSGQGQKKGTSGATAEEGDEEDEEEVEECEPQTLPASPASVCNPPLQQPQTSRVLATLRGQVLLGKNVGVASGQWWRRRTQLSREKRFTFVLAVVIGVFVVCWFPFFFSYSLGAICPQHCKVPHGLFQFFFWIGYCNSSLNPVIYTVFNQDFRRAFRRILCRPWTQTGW
T3 sequence (P22909 whole entry): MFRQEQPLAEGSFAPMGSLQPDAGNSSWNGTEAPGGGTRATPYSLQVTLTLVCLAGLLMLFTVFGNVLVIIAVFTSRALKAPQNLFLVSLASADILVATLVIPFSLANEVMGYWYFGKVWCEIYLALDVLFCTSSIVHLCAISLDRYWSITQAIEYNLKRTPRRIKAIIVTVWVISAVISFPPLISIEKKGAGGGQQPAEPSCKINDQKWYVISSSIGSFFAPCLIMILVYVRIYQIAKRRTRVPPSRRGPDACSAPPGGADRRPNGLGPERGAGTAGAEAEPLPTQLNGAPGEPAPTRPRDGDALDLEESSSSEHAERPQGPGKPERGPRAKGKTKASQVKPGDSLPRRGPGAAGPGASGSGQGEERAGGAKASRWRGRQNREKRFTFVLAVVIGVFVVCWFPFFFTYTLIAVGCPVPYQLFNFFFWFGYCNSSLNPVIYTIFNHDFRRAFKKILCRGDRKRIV
As to the kind of experiment: Antagonism of the clonidine-induced depression of twitch responses of rat isolated prostatic vas deferens.

Assay [4] deals with T4, Alpha-1A adrenergic receptor (Homo sapiens, UniProt P35348).
T4 sequence (P35348 whole entry): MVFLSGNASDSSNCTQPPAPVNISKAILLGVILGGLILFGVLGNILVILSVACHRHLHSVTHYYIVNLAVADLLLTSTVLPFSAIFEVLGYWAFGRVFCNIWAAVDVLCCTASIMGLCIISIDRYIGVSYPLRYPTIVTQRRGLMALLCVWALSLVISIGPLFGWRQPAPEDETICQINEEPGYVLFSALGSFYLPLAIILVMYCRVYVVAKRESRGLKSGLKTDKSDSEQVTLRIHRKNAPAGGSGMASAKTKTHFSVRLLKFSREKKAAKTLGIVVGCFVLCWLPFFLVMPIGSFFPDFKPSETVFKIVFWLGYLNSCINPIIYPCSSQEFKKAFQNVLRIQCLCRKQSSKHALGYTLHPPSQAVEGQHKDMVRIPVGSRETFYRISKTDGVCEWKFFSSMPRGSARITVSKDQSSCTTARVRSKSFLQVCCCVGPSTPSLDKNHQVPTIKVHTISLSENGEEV
As to the kind of experiment: Binding affinity at human cloned Alpha-1A adrenergic receptor in chinese hamster ovary cells by [3H]-prazosin displacement. It counts as cell-based, CHO.

D(2) dopamine receptor, sequence (P61169 whole entry): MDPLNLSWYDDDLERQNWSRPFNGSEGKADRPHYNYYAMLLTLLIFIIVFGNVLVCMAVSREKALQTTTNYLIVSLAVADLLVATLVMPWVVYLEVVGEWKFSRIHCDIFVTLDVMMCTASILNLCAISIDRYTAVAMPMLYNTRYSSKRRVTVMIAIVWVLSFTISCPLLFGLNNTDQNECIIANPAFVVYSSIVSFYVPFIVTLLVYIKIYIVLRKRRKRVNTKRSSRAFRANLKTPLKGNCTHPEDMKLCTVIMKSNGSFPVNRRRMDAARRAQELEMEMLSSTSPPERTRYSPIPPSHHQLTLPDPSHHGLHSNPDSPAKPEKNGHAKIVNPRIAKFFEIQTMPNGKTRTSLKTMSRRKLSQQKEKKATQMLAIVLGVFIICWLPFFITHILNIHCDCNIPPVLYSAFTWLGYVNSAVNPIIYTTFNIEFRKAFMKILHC

As to `COc1cc2nc(N(C)CCSSCCN(C)C(=O)c3ccco3)nc(N)c2cc1OC`, the inhibitory constant (Ki) in assay [1] is 1.07 nM; on D(2) dopamine receptor, over 10000 nM; in assay [2], 0.724 nM; in assay [4], 0.417 nM. In assay [3], this compound displayed a pA2 of under 5.
For the compound `COc1cc2nc(N(C)CCCCCCN(C)C(=O)c3ccco3)nc(N)c2cc1OC`, the figures for the inhibition constant (Ki) in assay [1], in assay [2] and in assay [4] were 0.11 nM, 0.195 nM and 0.166 nM, respectively. Moreover, the pA2 in assay [3] turned out to be 6.66.
